Source: ChEMBL document CHEMBL3217477, “Synthesis and biological evaluation of substituted - and -2,3-dihydrofuran naphthoquinones as potent anticandidal agents” (Medchemcomm, 2010)
≈ marks a conversion by molar mass, not a printed value.

Legend:
[1] = tested on: Candida albicans; test: Antifungal activity against Candida albicans assessed as growth inhibition at 250 ug/mL after 24 hrs by hole plate diffusion method; format: functional; conditions: read-out: IZ
[2] = tested on: Candida tropicalis; test: Antifungal activity against Candida tropicalis assessed as growth inhibition at 250 ug/mL after 24 hrs by hole plate diffusion method; format: functional; conditions: read-out: IZ
[3] = tested on: Kluyveromyces marxianus; test: Antifungal activity against Candida kefyr assessed as growth inhibition at 250 ug/mL after 24 hrs by hole plate diffusion method; format: functional; conditions: read-out: IZ
[4] = tested on: Candida parapsilosis; test: Antifungal activity against Candida parapsilosis assessed as growth inhibition at 250 ug/mL after 24 hrs by hole plate diffusion method; format: functional; conditions: Lodderomyces parapsilosis, read-out: IZ
[5] = tested on: Pichia kudriavzevii; test: Antifungal activity against Candida krusei assessed as growth inhibition at 250 ug/mL after 24 hrs by hole plate diffusion method; format: functional; conditions: read-out: IZ
[6] = tested on: Candida dubliniensis; test: Antifungal activity against Candida dubliniensis assessed as growth inhibition at 250 ug/mL after 24 hrs by hole plate diffusion method; format: functional; conditions: read-out: IZ
[7] = tested on: Candida albicans; test: Antifungal activity against Candida albicans assessed as growth inhibition after 24 hrs by microbroth dilution method; format: functional
[8] = tested on: Candida tropicalis; test: Antifungal activity against Candida tropicalis assessed as growth inhibition after 24 hrs by microbroth dilution method; format: functional
[9] = tested on: Kluyveromyces marxianus; test: Antifungal activity against Candida kefyr assessed as growth inhibition after 24 hrs by microbroth dilution method; format: functional
[10] = tested on: Candida parapsilosis; test: Antifungal activity against Candida parapsilosis assessed as growth inhibition after 24 hrs by microbroth dilution method; format: functional; conditions: Lodderomyces parapsilosis
[11] = tested on: Pichia kudriavzevii; test: Antifungal activity against Candida krusei assessed as growth inhibition after 24 hrs by microbroth dilution method; format: functional
[12] = tested on: Candida dubliniensis; test: Antifungal activity against Candida dubliniensis assessed as growth inhibition after 24 hrs by microbroth dilution method; format: functional
[13] = tested on: Candida albicans; test: Antifungal activity against Candida albicans ATCC 90028 assessed as growth inhibition after 24 hrs by microbroth dilution method; format: functional; conditions: ATCC 90028, 24 h
[14] = Hemolytic activity in Swiss mouse erythrocytes at 50 ug/mL after 1 hr by spectrophotometric analysis relative to control; format: ADME, cell-based, Erythrocyte; conditions: read-out: Activity
[15] = Cytotoxicity against mouse NIH/3T3 cells assessed as dead cells at 12.5 ug/mL after 72 hrs by Alamar Blue assay relative to control; format: cell-based; conditions: nih3t3, 72 h

| SMILES | zone of inhibition at 250 µg/mL [1] [mm] | zone of inhibition at 250 µg/mL [2] [mm] | zone of inhibition at 250 µg/mL [3] [mm] | zone of inhibition at 250 µg/mL [4] [mm] | zone of inhibition at 250 µg/mL [5] [mm] | zone of inhibition at 250 µg/mL [6] [mm] | MIC [7] [µM] | MIC [8] [µM] | MIC [9] [µM] | MIC [10] [µM] | MIC [11] [µM] | MIC [12] [µM] | MIC [13] [µM] | hemolysis at 1 h, 50 ug/mL [14] [%] | mortality [15] [%] |
| --- | --- | --- | --- | --- | --- | --- | --- | --- | --- | --- | --- | --- | --- | --- | --- |
| Cc1ccc(C2CC3=C(O2)c2ccccc2C(=O)C3=O)c(C)c1 (stereo not given) | 2.93 | 7.51 | 9.28 | 9 | 10.8 | 4.19 | 82.1 (≈ 25 µg/mL) | 41.1 (≈ 12.5 µg/mL) | 41.1 (≈ 12.5 µg/mL) | 10.3 (≈ 3.12 µg/mL) | 5.13 (≈ 1.56 µg/mL) | 41.1 (≈ 12.5 µg/mL) | 82.1 (≈ 25 µg/mL) | 4.37 | 17 |
| O=C1C(=O)c2ccccc2C2=C1CC1(C=CC=C1)O2 | 5.85 | 7.19 | 10.7 | 6.14 | 8.8 | 18.5 | 6.55 (≈ 1.64 µg/mL) | 3.27 (≈ 0.818 µg/mL) | 26.2 (≈ 6.56 µg/mL) | 13.1 (≈ 3.28 µg/mL) | 13.1 (≈ 3.28 µg/mL) | 6.55 (≈ 1.64 µg/mL) | 13.1 (≈ 3.28 µg/mL) | -1.63 | 8 |
| CC1(C)CC2=C(O1)c1ccccc1C(=O)C2=O [NOR-BETA-LAPACHONE] | 1.64 | 4.78 | 8.27 | 7.41 | 9.01 | 0.1 | 54.8 (≈ 12.5 µg/mL) | 54.8 (≈ 12.5 µg/mL) | 110 (≈ 25 µg/mL) | 27.4 (≈ 6.25 µg/mL) | 110 (≈ 25 µg/mL) | 6.84 (≈ 1.56 µg/mL) | 110 (≈ 25 µg/mL) | -2.4 | 11 |
